Measured values taken from publication PMC6300282, “Sulphamethazine derivatives as immunomodulating agents: New therapeutic strategies for inflammatory diseases” (PLoS ONE, 2018).
≈ marks a conversion by molar mass, not a printed value.

How the values were obtained:
[1] = test system: Pseudomonas aeruginosa (POA 286); experiment: Microplate Alamar Blue Assay, Pseudomonas aeruginosa; type: cell-based; settings: Pseudomonas aeruginosa; 200 μg/mL; NI = No inhibition; read-out: Percentage (%) Inhibition, Pseudomonas aerugenosa
MTT cytotoxicity assay = type: cell-based, mouse; settings: mouse; for IC50: MTT, 48 hours, read-out: Cytotoxicity NIH-3T3 cell line (IC50)
Method: The cytotoxicity was recorded as concentration causing 50% growth inhibition (IC50).

[2] = test system: Escherichia coli (ATCC 12022); experiment: Microplate Alamar Blue Assay, Escherichia coli; type: cell-based; settings: ATCC12022, 200 μg/mL, NI = No inhibition, read-out: Percentage (%) Inhibition, Escherichia coli
[3] = test system: isolated polymorphonuclear neutrophils (PMNs); experiment: Oxidative burst assay (luminol-enhanced chemiluminescence), isolated PMNs; type: cell-based; settings: Polymorphonuclear neutrophil, isolated human PMNs, zymosan, three doses 1, 10, 100 μg/mL, mean ± SD of three, read-out: Oxidative Burst Inhibition (IC50) PMNs
Description: Heparinized blood was obtained by vein puncture aseptically from healthy volunteers. The PMNs were isolated by ficoll-Hypaque density gradient method. The cells were isolated after centrifugation from the tube base. Cells were washed twice and suspended in Hank’s Balance salt solution (HBSS^--) (Ca^2+ and Mg^2+ free), RBCs were lysed using hypotonic solution. Cells were adjusted to their required concentration (1x10^6 cells/mL) using HBSS^++containing Ca^2+ and Mg^2+.
Luminol-enhanced chemiluminescence assay was performed, as described by Helfandet al., 1982 [17], with some modifications. Briefly 25 μL of diluted whole blood in HBSS^++ (Hanks Balanced Salt Solution, containing calcium chloride and magnesium chloride) [Sigma, St. Louis, USA] was incubated with 25 μL of three different concentrations of compounds (1, 10, and 100 μg/mL), each in triplicate. Control wells received HBSS^++ and cells, but no compounds. Test was performed in white half area 96-well plates [Costar, NY, USA], which was incubated at 37 °C for 15 minutes in the thermostat chamber of luminometer [Labsystems, Helsinki, Finland]. After incubation, 25 μL of serum opsonized zymosan (SOZ) [Fluka, Buchs, Switzerland] and 25 μL of intracellular reactive oxygen species detecting probe, luminol [Research Organics, Cleveland, OH, USA] were added into each well, except blank wells (containing only HBSS^++). The level of the ROS was recorded in luminometer in term of relative light units (RLU).

[4] = test system: Bacillus subtilis (ATCC 6633); experiment: Microplate Alamar Blue Assay, Bacillus subtilis; type: cell-based; settings: ATCC6633, 200 μg/mL, NI = No inhibition, read-out: Percentage (%) Inhibition, Bacillus subtilis
[5] = test system: nitric oxide (NO) production from LPS activated J774.2 mouse macrophages; experiment: Nitric oxide production (Griess), LPS activated macrophages; type: cell-based; settings: J774.2 cells, 30 μg/mL LPS, three doses 1, 10, 100 μg/mL, mean ± SD of three, read-out: NO Inhibition (IC50)
Method: The mouse macrophage cell line J774.2 (European Collection of Cell Cultures, UK) was cultured in 75 cc flasks IWAKI (Asahi Techno Glass, Japan) in DMEM Sigma-Aldrich (Steinheim, Germany) supplemented with 10% fetal bovine serum GIBCO (New York, USA)1% streptomycin/penicillin. Flasks were kept at 37 °C in atmosphere of humidified air containing 5% CO2, cells were seeded in 96-well plate (10^6 cells/mL) and were induced by 30 μg/mL e. coli lipopolysaccharide (LPS) (DIFCO Laboratories michigon, USA). The test compounds were added at concentrations of (1, 10 and 100 μg/mL) and plate was incubated at 37 °C in 5% CO2. Nitrite accumulation in culture supernatant was measured using the Griess reagents as described previously.

Cc1cc(C)nc(NS(=O)(=O)c2ccc(NC(=O)c3cc(F)cc(C(F)(F)F)c3)cc2)n1 [Compound 8, N-(4-(N-(4,6-dimethylpyrimidin-2-yl)sulfamoyl)phenyl)-3-fluoro-5-(trifluoromethyl)benzamide]
inhibition at 200 µg/mL [1]: 4.31% | IC50 (MTT cytotoxicity assay): > 30 µM | inhibition at 200 µg/mL [2]: < 0% | IC50 [3]: 2.4 ± 0.07 µg/mL | inhibition at 200 µg/mL [4]: < 0% | IC50 [5]: 7.3 ± 0.3 µg/mL (≈ 15.6 µM)

Cc1cc(C)nc(NS(=O)(=O)c2ccc(NC(=O)C(Br)CBr)cc2)n1 (stereo not drawn) [Compound 3, 2,3-Dibromo-N-(4-(N-(4,6-dimethylpyrimidin-2-yl)sulfamoyl)phenyl)propanamide]
inhibition at 200 µg/mL [1]: 5.93% | IC50 (MTT cytotoxicity assay): > 30 µM | inhibition at 200 µg/mL [2]: < 0% | IC50 [3]: 3.6 ± 0.05 µg/mL | inhibition at 200 µg/mL [4]: < 0% | IC50 [5]: < 1 µg/mL

Cc1cc(C)nc(NS(=O)(=O)c2ccc(NC(=O)c3cc(C(F)(F)F)cc(C(F)(F)F)c3)cc2)n1 [Compound 6, N-(4-(N-(4,6-dimethylpyrimidin-2-yl)sulfamoyl)phenyl)-3,5-bis(trifluoromethyl)benzamide]
inhibition at 200 µg/mL [1]: < 0% | IC50 (MTT cytotoxicity assay): > 30 µM | inhibition at 200 µg/mL [2]: < 0% | IC50 [3]: 3.4 ± 0.1 µg/mL | inhibition at 200 µg/mL [4]: < 0% | IC50 [5]: 7.8 ± 0.3 µg/mL (≈ 15 µM)

Cc1cc(C)nc(NS(=O)(=O)c2ccc(N)cc2)n1 [compound 1, Sulfamethazine, reference compound]
inhibition at 200 µg/mL [1]: 8.92% | IC50 at 48 h (MTT cytotoxicity assay): > 30 µM | inhibition at 200 µg/mL [2]: < 0% | IC50 [3]: 5.2 ± 0.05 µg/mL | inhibition at 200 µg/mL [4]: < 0% | IC50 [5]: 18.9 ± 1.7 µg/mL (≈ 67.9 µM)

Cc1cc(C)nc(NS(=O)(=O)c2ccc(NC(=O)c3ccc(F)c(C(F)(F)F)c3)cc2)n1 [Compound 10, N-(4-(N-(4,6-dimethylpyrimidin-2-yl)sulfamoyl)phenyl)-4-fluoro-3-(trifluoromethyl)benzamide]
inhibition at 200 µg/mL [1]: < 0% | IC50 (MTT cytotoxicity assay): > 30 µM | inhibition at 200 µg/mL [2]: < 0% | IC50 [3]: 3.4 ± 0.4 µg/mL | inhibition at 200 µg/mL [4]: < 0% | IC50 [5]: 7.3 ± 0.2 µg/mL (≈ 15.6 µM)

Cc1cc(C)nc(NS(=O)(=O)c2ccc(NC(=O)c3ccc(CCl)cc3)cc2)n1 [Compound 5, 4-(Chloromethyl)-N-(4-(N-(4,6-dimethylpyrimidin-2-yl)sulfamoyl)phenyl)benzamide]
inhibition at 200 µg/mL [1]: < 0% | IC50 (MTT cytotoxicity assay): > 30 µM | inhibition at 200 µg/mL [2]: < 0% | IC50 [3]: 3 ± 0.06 µg/mL | inhibition at 200 µg/mL [4]: < 0% | IC50 [5]: 6.9 ± 1.9 µg/mL (≈ 16 µM)

Cc1cc(C)nc(NS(=O)(=O)c2ccc(NC(=O)c3cccc([N+](=O)[O-])c3)cc2)n1 [Compound 13, N-(4-(N-(4,6-dimethylpyrimidin-2-yl)sulfamoyl)phenyl)-3-nitrobenzamide]
inhibition at 200 µg/mL [1]: 6.58% | IC50 (MTT cytotoxicity assay): > 30 µM | inhibition at 200 µg/mL [2]: < 0% | IC50 [3]: 4.9 ± 0.2 µg/mL | inhibition at 200 µg/mL [4]: < 0% | IC50 [5]: 10.9 ± 0.5 µg/mL (≈ 25.5 µM)

Cc1cc(C)nc(NS(=O)(=O)c2ccc(NC(=O)c3cccc(CCl)c3)cc2)n1 [Compound 4, 3-(Chloromethyl)-N-(4-(N-(4,6-dimethylpyrimidin-2-yl)sulfamoyl)phenyl)benzamide]
inhibition at 200 µg/mL [1]: < 0% | IC50 (MTT cytotoxicity assay): > 30 µM | inhibition at 200 µg/mL [2]: < 0% | IC50 [3]: 6.1 ± 0.08 µg/mL | inhibition at 200 µg/mL [4]: < 0% | IC50 [5]: < 1 µg/mL

Cc1cc(C)nc(NS(=O)(=O)c2ccc(NC(=O)c3cc(F)cc(F)c3)cc2)n1 [Compound 7, N-(4-(N-(4,6-dimethylpyrimidin-2-yl)sulfamoyl)phenyl)-3,5-difluorobenzamide]
inhibition at 200 µg/mL [1]: < 0% | IC50 (MTT cytotoxicity assay): > 30 µM | inhibition at 200 µg/mL [2]: < 0% | IC50 [3]: 2.9 ± 0.3 µg/mL | inhibition at 200 µg/mL [4]: < 0% | IC50 [5]: 8 ± 0.3 µg/mL (≈ 19.1 µM)

Cc1cc(C)nc(NS(=O)(=O)c2ccc(NC(=O)c3ccc(F)cc3)cc2)n1 [Compound 12, N-(4-(N-(4,6-dimethylpyrimidin-2-yl)sulfamoyl)phenyl)-4-fluorobenzamide]
inhibition at 200 µg/mL [1]: < 0% | IC50 (MTT cytotoxicity assay): > 30 µM | inhibition at 200 µg/mL [2]: < 0% | IC50 [3]: 3.3 ± 0.05 µg/mL | inhibition at 200 µg/mL [4]: < 0% | IC50 [5]: 10.8 ± 2.1 µg/mL (≈ 27 µM)

Cc1cc(C)nc(NS(=O)(=O)c2ccc(NC(=O)C(C)Cl)cc2)n1 (stereo not drawn) [Compound 11, 2-Chloro-N-(4-(N-(4,6-dimethylpyrimidin-2-yl)sulfamoyl)phenyl)propanamide]
inhibition at 200 µg/mL [1]: 26.5% | IC50 (MTT cytotoxicity assay): > 30 µM | inhibition at 200 µg/mL [2]: 3.93% | IC50 [3]: 6.2 ± 0.13 µg/mL | inhibition at 200 µg/mL [4]: 35.1% | IC50 [5]: 26.3 ± 1.8 µg/mL (≈ 71.3 µM)

Cc1cc(C)nc(NS(=O)(=O)c2ccc(NC(=O)c3ccc(C(F)(F)F)c(F)c3)cc2)n1 [Compound 9, N-(4-(N-(4,6-dimethylpyrimidin-2-yl)sulfamoyl)phenyl)-3-fluoro-4-(trifluoromethyl)benzamide]
inhibition at 200 µg/mL [1]: < 0% | IC50 (MTT cytotoxicity assay): > 30 µM | inhibition at 200 µg/mL [2]: < 0% | IC50 [3]: 2.8 ± 0.05 µg/mL | inhibition at 200 µg/mL [4]: < 0% | IC50 [5]: 7.3 ± 0.4 µg/mL (≈ 15.6 µM)
